Legend:
PANC02 cells = test: In vivo efficacy study, subcutaneous PANC02 tumour model; set-up: species or system C57BL/6 mice; conditions: 60 mg/kg BW gemcitabine IP, 3 times/week
Protocol: Cultures of PANC02 cells were harvested using a 0.05% trypsin solution, washed twice in sterile PBS and resuspended in sterile PBS at a concentration of 30 x 10^6 cells per mL. The viable cells were counted by using the Muse® Cell Analyzer. The mice (n = 56) were inoculated with 100 µL of the cell suspension in the right hind limb. Each mouse was randomly assigned to one of 8 groups (n = 6-8 mice per group) receiving a different treatment (Table 2). Tumour growth of the subcutaneous model was evaluated with calliper measurements from the moment the tumours became palpable and this three times a week before treatment and daily during treatment. The tumour volume was calculated by means of formula V = 0.5 x ab^2, with a and b being the long and short axes of the tumour, respectively. Table 2 - Group treatment assignment
Treatment was administered during 10 days, starting 19 days after tumour inoculation when tumours had reached a volume of approximately 300-400 mm^3. The first day of treatment was assigned "day 1". […] For both extracts the total amount of colchicine and its derivatives (calculated as colchicine) was the same, but the amount of colchicine itself in the extracts was different. […] To evaluate the effect of the treatment, tumour volume was measured daily during treatment and the mice were sacrificed on day 11.
Results were expressed as mean values of parameters ± standard error (SE). […]

cancer cells [1] = conditions: literature; cited from earlier work
cancer cells [2] = conditions: literature comparison with colchicine; cited from earlier work

Nc1ccn([C@@H]2O[C@H](CO)[C@@H](O)C2(F)F)c(=O)n1 [Gemcitabine, gemcitabine]
% TGI (7 days) (PANC02 cells; day 7): 90%
% TGI (10 days) (PANC02 cells; day 10): 99%

COc1c(O[C@@H]2O[C@H](CO)[C@@H](O)[C@H](O)[C@H]2O)cc2c(c1OC)-c1ccc(OC)c(=O)cc1[C@@H](NC(C)=O)CC2 [Colchicoside]
activity in vitro (cancer cells [1]): not active

COc1cc2c(c(OC)c1OC)-c1ccc(OC)c(=O)cc1[C@@H](NC(C)=O)CC2 [COL, colchicine]
in vivo potency (cancer cells [2]): 0.4 µmol/kg

COc1cc2c(c(OC)c1O)-c1ccc(OC)c(=O)cc1[C@@H](NC(C)=O)CC2 [2-O-demethylcolchicine]
in vivo potency (cancer cells [2]): 13.8 µmol/kg

From EP3069725A1, “GLORIOSA SUPERBA L. EXTRACTS, COMPOSITIONS AND USE THEREOF” (priority 2015, dated 2016)
